{"source": "patent US20230380435A1", "about": "“METHOD FOR PREPARING AND PRESERVING SANITIZED PRODUCTS” (Apeel Technology, Inc., priority 2016, published 2023)", "key": {"Listeria monocytogenes": {"test_system": "Listeria monocytogenes", "details": "cited from earlier work"}, "blueberries": {"test_system": "blueberries", "assay": "Effect of ethanol on post-harvest mass loss of blueberries", "details": "after just under four days, solvent only, no coating agent, 23-27 °C, humidity 40%-55%", "from_the_text": "The blueberries were all harvested simultaneously and divided into groups, each of the groups being qualitatively identical to the other groups (i.e., all groups had blueberries of approximately the same average size and quality).\nBlueberries were harvested simultaneously and divided into four groups of sixty blueberries each, each of the groups being qualitatively identical (i.e., all groups had blueberries of approximately the same average size and quality). The first group of blueberries was not washed or treated in any way and served as a control group.\nTo treat the blueberries with the various solvents, the blueberries were placed in bags, and the solvent was poured into the bag. The bag was then sealed and lightly agitated until the entire surface of each blueberry was wet. The blueberries were then removed from the bag and allowed to dry on drying racks. The blueberries were kept under ambient room conditions at a temperature in the range of 23° C.-27° C. and humidity in the range of 40%-55% while they dried and for the entire duration of the time they were tested."}, "Botrytis": {"test_system": "Botrytis", "details": "applied for 10 at least seconds; cited from earlier work"}}}
{"smiles": "CCO", "note": "[substantially pure ethanol (108), ethanol]", "values": [{"measurement": "ethanol concentration inhibiting (not completely stopping) growth", "setting": "Listeria monocytogenes", "value": 5, "unit": "%"}, {"measurement": "average percent mass loss", "setting": "blueberries", "value": "about 19%"}, {"measurement": "ethanol concentration inhibiting germination", "setting": "Botrytis", "value": "≥ 30", "unit": "%"}]}
